{
  "source": "patent US10131652B2",
  "about": "“Pyrimidinyloxy benzene derivatives as herbicides” (E. I. DU PONT DE NEMOURS AND COMPANY, priority 2014, dated 2018)",
  "format_in_all_cases": "in vivo",
  "key": {"[1]": {"system": "barnyardgrass (Echinochloa crus-galli)", "assay": "Test B pre-/postemergence plant response", "conditions": "1000 g ai/ha, 0 to 100 scale (0 no effect, 100 complete control)", "summary_of_the_method": "(§1)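 Visual injury rating, 0 (no effect) to 100 (complete control), vs untreated controls after ~10 d greenhouse. Pre: directed soil spray after planting in loam/sand. Post: plants 2–10 cm, 1–2 leaf stage. Compound in non-phytotoxic solvent plus surfactant.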"}, "corn (Zea mays)": {"system": "corn (Zea mays)", "assay": "Test B pre-/postemergence plant response", "conditions": "Postemergence, 1000 g ai/ha; 0 to 100 scale (0 no effect, 100 complete control)", "summary_of_the_method": "as §1"}, "[2]": {"system": "giant foxtail (Setaria faberii)", "assay": "Test B pre-/postemergence plant response", "conditions": "1000 g ai/ha, 0 to 100 scale (0 no effect, 100 complete control)", "summary_of_the_method": "as §1"}, "[3]": {"system": "pigweed (Amaranthus retroflexus)", "assay": "Test B pre-/postemergence plant response", "conditions": "1000 g ai/ha, 0 to 100 scale (0 no effect, 100 complete control)", "summary_of_the_method": "as §1"}, "[4]": {"system": "wheat (Triticum aestivum)", "assay": "Test B pre-/postemergence plant response", "conditions": "Postemergence, 1000 g ai/ha; 0 to 100 scale (0 no effect, 100 complete control)", "summary_of_the_method": "as §1"}, "[5]": {"system": "barnyardgrass (Echinochloa crus-galli)", "assay": "Test C flooded paddy test plant response", "conditions": "Flood, 250 g ai/ha; scale of 0 to 100 where 0 is no effect and 100 is complete control; 13 to 15 days", "summary_of_the_method": "(§2)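 Two-leaf stage → flood to 3 cm → compound into water → hold depth, greenhouse 13–15 d → visual score vs controls (0 none, 100 complete control).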"}, "[6]": {"system": "ducksalad (Heteranthera limosa)", "assay": "Test C flooded paddy test plant response", "conditions": "Flood, 250 g ai/ha; scale of 0 to 100 where 0 is no effect and 100 is complete control; 13 to 15 days", "summary_of_the_method": "as §2"}, "rice (Oryza sativa)": {"system": "rice (Oryza sativa)", "assay": "Test C flooded paddy test plant response", "conditions": "Flood, 250 g ai/ha; scale of 0 to 100 where 0 is no effect and 100 is complete control; 13 to 15 days", "summary_of_the_method": "as §2"}, "[7]": {"system": "small-flower umbrella sedge (Cyperus difformis)", "assay": "Test C flooded paddy test plant response", "conditions": "Flood, 250 g ai/ha; scale of 0 to 100 where 0 is no effect and 100 is complete control; 13 to 15 days", "summary_of_the_method": "as §2"}, "[8]": {"system": "johnsongrass (Sorghum halepense)", "assay": "Test D pre-/postemergence plant response", "text": "(§3) Seeds of plant species selected from blackgrass (Alopecurus myosuroides), Italian ryegrass (Lolium multiflorum), winter wheat (Triticum aestivum), galium (catchweed bedstraw, Galium aparine), corn (Zea mays), large (Lg) crabgrass (Digitaria sanguinalis), giant foxtail (Setaria faberii), johnsongrass (Sorghum halepense), lambsquarters (Chenopodium album), morningglory (Ipomoea coccinea), yellow nutsedge (Cyperus esculentus), pigweed (Amaranthus retroflexus), ragweed (common ragweed, Ambrosia elatior), soybean (Glycine max), bamyardgrass (Echinochloa crus-galli), oilseed rape (Brassica napus), waterhemp (common waterhemp, Amaranthus rudis), and velvetleaf (Abutilon theophrasti) were planted into a blend of loam soil and sand and treated preemergence with test chemicals formulated in a non-phytotoxic solvent mixture which included a surfactant. At the same time, plants selected from these crop and weed species and also kochia (Kochia scoparia), wild oat (Avena fatua), and chickweed (common chickweed, Stellaria media) were planted in pots containing Redi-Earth® planting medium (Scotts Company, 14111 Scottslawn Road, Marysville, Ohio 43041) comprising spaghnum peat moss, vermiculite, wetting agent and starter nutrients and treated with postemergence applications of test chemicals formulated in the same manner. Plants ranged in height from 2 to 18 cm (1- to 4-leaf stage) for postemergence treatments. Treated plants and controls were maintained in a greenhouse for 13 to 15 days, after which time all species were compared to controls and visually evaluated. Plant response ratings, summarized in Table D, are based on a scale of 0 to 100 where 0 is no effect and 100 is complete control. A dash (-) response means no test result."}, "[9]": {"system": "lambsquarters (Chenopodium album)", "assay": "Test D pre-/postemergence plant response", "text": "as §3"}, "[10]": {"system": "morningglory (Ipomoea coccinea)", "assay": "Test D pre-/postemergence plant response", "text": "as §3"}, "soybean (Glycine max)": {"system": "soybean (Glycine max)", "assay": "Test D pre-/postemergence plant response", "text": "as §3"}, "[11]": {"system": "velvetleaf (Abutilon theophrasti)", "assay": "Test D pre-/postemergence plant response", "text": "as §3"}, "[12]": {"system": "waterhemp (common waterhemp, Amaranthus rudis)", "assay": "Test D pre-/postemergence plant response", "text": "as §3"}, "[13]": {"system": "winter wheat (Triticum aestivum)", "assay": "Test D pre-/postemergence plant response", "text": "as §3"}, "[14]": {"conditions": "Postemergence, 16 g ai/ha, scale 0 to 100 (0 no effect, 100 complete control)"}, "[15]": {"conditions": "Postemergence, 31 g ai/ha, scale 0 to 100 (0 no effect, 100 complete control)"}, "[16]": {"conditions": "Postemergence, 62 g ai/ha, scale 0 to 100, 0 no effect, 100 complete control"}, "[17]": {"conditions": "Postemergence, 125 g ai/ha, scale 0 to 100, 0 no effect, 100 complete control"}, "[18]": {"conditions": "Preemergence, 16 g ai/ha, scale 0 to 100 (0 no effect, 100 complete control)"}, "[19]": {"conditions": "Preemergence, 31 g ai/ha, scale 0 to 100 (0 no effect, 100 complete control)"}, "[20]": {"conditions": "Preemergence, 62 g ai/ha, scale 0 to 100 (0 no effect, 100 complete control)"}},
  "data": [
    {"smiles": "FCc1cc(-c2c(F)cccc2Oc2ncc(Cl)cn2)no1", "note": "[Compound 57]", "values": [
      {"measurement": "Plant response rating, Barnyardgrass", "setting": "[1]; Postemergence", "result": 100},
      {"measurement": "Plant response rating, Barnyardgrass", "setting": "[1]; Preemergence", "result": 100},
      {"measurement": "Plant response rating, Corn", "setting": "corn (Zea mays)", "result": 90},
      {"measurement": "Plant response rating, Foxtail, Giant", "setting": "[2]; Postemergence", "result": 100},
      {"measurement": "Plant response rating, Foxtail, Giant", "setting": "[2]; Preemergence", "result": 100},
      {"measurement": "Plant response rating, Pigweed", "setting": "[3]; Postemergence", "result": 100},
      {"measurement": "Plant response rating, Pigweed", "setting": "[3]; Preemergence", "result": 90},
      {"measurement": "Plant response rating, Wheat", "setting": "[4]", "result": 90},
      {"measurement": "Barnyardgrass plant response rating", "setting": "[5]", "result": 0},
      {"measurement": "Ducksalad plant response rating", "setting": "[6]", "result": 90},
      {"measurement": "Rice plant response rating", "setting": "rice (Oryza sativa)", "result": 0},
      {"measurement": "Sedge, Umbrella plant response rating", "setting": "[7]", "result": 75},
      {"measurement": "Johnsongrass plant response rating", "setting": "[8]; [14]", "result": 0},
      {"measurement": "Johnsongrass plant response rating", "setting": "[8]; [15]", "result": 0},
      {"measurement": "Plant response rating, Johnsongrass", "setting": "[8]; [16]", "result": 5},
      {"measurement": "Plant response rating, Johnsongrass", "setting": "[8]; [17]", "result": 5},
      {"measurement": "Plant response rating (scale 0 to 100), Johnsongrass", "setting": "[8]; Preemergence, 125 g ai/ha", "result": 80},
      {"measurement": "Plant response rating, Johnsongrass", "setting": "[8]; [18]", "result": 0},
      {"measurement": "Plant response rating, Johnsongrass", "setting": "[8]; [19]", "result": 10},
      {"measurement": "Plant response rating, Johnsongrass", "setting": "[8]; [20]", "result": 40},
      {"measurement": "Lambsquarters plant response rating", "setting": "[9]; [14]", "result": 60},
      {"measurement": "Lambsquarters plant response rating", "setting": "[9]; [15]", "result": 40},
      {"measurement": "Plant response rating, Lambsquarters", "setting": "[9]; [16]", "result": 70},
      {"measurement": "Plant response rating, Lambsquarters", "setting": "[9]; [17]", "result": 80},
      {"measurement": "Plant response rating (scale 0 to 100), Lambsquarters", "setting": "[9]; Preemergence, 125 g ai/ha", "result": 100},
      {"measurement": "Plant response rating, Lambsquarters", "setting": "[9]; [18]", "result": 80},
      {"measurement": "Plant response rating, Lambsquarters", "setting": "[9]; [19]", "result": 100},
      {"measurement": "Plant response rating, Lambsquarters", "setting": "[9]; [20]", "result": 100},
      {"measurement": "Morningglory plant response rating", "setting": "[10]; [14]", "result": 5},
      {"measurement": "Morningglory plant response rating", "setting": "[10]; [15]", "result": 45},
      {"measurement": "Plant response rating, Morningglory", "setting": "[10]; [16]", "result": 45},
      {"measurement": "Plant response rating, Morningglory", "setting": "[10]; [17]", "result": 65},
      {"measurement": "Plant response rating (scale 0 to 100), Morningglory", "setting": "[10]; Preemergence, 125 g ai/ha", "result": 45},
      {"measurement": "Plant response rating, Morningglory", "setting": "[10]; [18]", "result": 10},
      {"measurement": "Plant response rating, Morningglory", "setting": "[10]; [19]", "result": 20},
      {"measurement": "Plant response rating, Morningglory", "setting": "[10]; [20]", "result": 35},
      {"measurement": "Soybean plant response rating", "setting": "soybean (Glycine max); [14]", "result": 40},
      {"measurement": "Soybean plant response rating", "setting": "soybean (Glycine max); [15]", "result": 70},
      {"measurement": "Plant response rating, Soybean", "setting": "soybean (Glycine max); [16]", "result": 85},
      {"measurement": "Plant response rating, Soybean", "setting": "soybean (Glycine max); [17]", "result": 90},
      {"measurement": "Plant response rating (scale 0 to 100), Soybean", "setting": "soybean (Glycine max); Preemergence, 125 g ai/ha", "result": 95},
      {"measurement": "Plant response rating, Soybean", "setting": "soybean (Glycine max); [19]", "result": 65},
      {"measurement": "Plant response rating, Soybean", "setting": "soybean (Glycine max); [20]", "result": 95},
      {"measurement": "Velvetleaf plant response rating", "setting": "[11]; [14]", "result": 10},
      {"measurement": "Velvetleaf plant response rating", "setting": "[11]; [15]", "result": 50},
      {"measurement": "Plant response rating, Velvetleaf", "setting": "[11]; [16]", "result": 70},
      {"measurement": "Plant response rating, Velvetleaf", "setting": "[11]; [17]", "result": 80},
      {"measurement": "Plant response rating (scale 0 to 100), Velvetleaf", "setting": "[11]; Preemergence, 125 g ai/ha", "result": 100},
      {"measurement": "Plant response rating, Velvetleaf", "setting": "[11]; [18]", "result": 100},
      {"measurement": "Plant response rating, Velvetleaf", "setting": "[11]; [19]", "result": 100},
      {"measurement": "Plant response rating, Velvetleaf", "setting": "[11]; [20]", "result": 100},
      {"measurement": "Waterhemp plant response rating", "setting": "[12]; [14]", "result": 60},
      {"measurement": "Waterhemp plant response rating", "setting": "[12]; [15]", "result": 55},
      {"measurement": "Plant response rating, Waterhemp", "setting": "[12]; [16]", "result": 75},
      {"measurement": "Plant response rating, Waterhemp", "setting": "[12]; [17]", "result": 98},
      {"measurement": "Plant response rating (scale 0 to 100), Waterhemp", "setting": "[12]; Preemergence, 125 g ai/ha", "result": 100},
      {"measurement": "Plant response rating, Waterhemp", "setting": "[12]; [18]", "result": 100},
      {"measurement": "Plant response rating, Waterhemp", "setting": "[12]; [19]", "result": 90},
      {"measurement": "Plant response rating, Waterhemp", "setting": "[12]; [20]", "result": 100},
      {"measurement": "Wheat plant response rating", "setting": "[13]; [14]", "result": 0},
      {"measurement": "Wheat plant response rating", "setting": "[13]; [15]", "result": 5},
      {"measurement": "Plant response rating, Wheat", "setting": "[13]; [16]", "result": 15},
      {"measurement": "Plant response rating, Wheat", "setting": "[13]; [17]", "result": 20},
      {"measurement": "Plant response rating (scale 0 to 100), Wheat", "setting": "[13]; Preemergence, 125 g ai/ha", "result": 5},
      {"measurement": "Plant response rating, Wheat", "setting": "[13]; [18]", "result": 0},
      {"measurement": "Plant response rating, Wheat", "setting": "[13]; [19]", "result": 0},
      {"measurement": "Plant response rating, Wheat", "setting": "[13]; [20]", "result": 0}
    ]}
  ]
}
